In patent publication US20020137162A1, “Antisense oligonucleotide inhibition of specific histone deacetylase isoforms” (priority 2000, published 2002):
d = 2'-deoxy (DNA); m = 2'-O-methyl

Experiments:
human HDAC-4 = experiment: Antisense ODN screen, HDAC-4 RNA, T24 cells; type: cell-based; details: 100 nM, 24 hours, Northern blot
Method: Seventeen phosphorothioate ODNs containing sequences complementary to the 5′ or 3′ UTR of the human HDAC-4 gene (GenBank Accession No. AB006626) were screened as above. […] HDAC-4 MM1 and MM2 oligonucleotides were created as controls; compared to the antisense oligonucleotides, they each contain a 6-base mismatch.
(§1) Briefly, human A549 and/or T24 human bladder carcinoma cells were seeded in 10 cm tissue culture dishes one day prior to oligonucleotide treatment. The cell lines were obtained from the American Type Culture Collection (ATCC) (Manassas, Va.) and were grown under the recommended culture conditions. Before the addition of the oligonucleotides, cells were washed with PBS (phosphate buffered saline). Next, lipofectin transfection reagent (GIBCO BRL Mississauga, Ontario, Calif.), at a concentration of 6.25 μg/ml, was added to serum free OPTIMEM medium (GIBCO BRL, Rockville, Md.), which was then added to the cells. The oligonucleotides to be screened were then added directly to the cells (i.e., one oligonucleotide per plate of cells). Mismatched oligonucleotides were used as controls. The same concentration of oligonucleotide (e.g., 50 nM) was used per plate of cells for each oligonucleotide tested.
(§2) Cells were harvested, and total RNAs were analyzed by Northern blot analysis. Briefly, total RNA was extracted using RNeasy miniprep columns (QIAGEN). […]

human HDAC-7 = experiment: Antisense ODN screen, HDAC-7 RNA, T24 cells; type: cell-based; details: 100 nM, 24 hours, Northern blot
Method: Eighteen phosphorothioate ODNs containing sequences complementary to the 5′ or 3′ untranslated regions of the human HDAC-7 gene (GenBank Accession No. AF239243) were screened as above.
as §1
(§3) Cells were harvested, and total RNAs were analyzed by Northern blot analysis. Briefly, total RNA was extracted using RNeasy miniprep columns (QIAGEN). Ten to twenty gg of total RNA was run on a formaldehyde-containing 1% agarose gel with 0.5 M sodium phosphate (pH 7.0) as the buffer system. […]

human HDAC-1 = experiment: Antisense ODN screen, HDAC-1 RNA expression by Northern blot in T24 cells; type: cell-based; details: 100 nM, 24 hours
Method: as §1
Cells were harvested, and total RNAs were analyzed by Northern blot analysis. Briefly, total RNA was extracted using RNeasy miniprep columns (QIAGEN). Ten to twenty gg of total RNA was run on a formaldehyde-containing 1% agarose gel with 0.5 M sodium phosphate (pH 7.0) as the buffer system. RNAs were then transferred to nitrocellulose membranes and hybridized with the indicated radiolabeled DNA probes. Autoradiography was performed using conventional procedures.

A549 = experiment: Apoptosis, Cell Death Detection ELISA; type: cell-based, human; details: fold over non-specific background, TSA at 100 ng/ml
Method: (§4) In order to determine the effect of HDAC OSDNs on cell growth and cell death through apoptosis, A549 or T24 cells, MDAmb231 cells, and HMEC cells (ATCC, Manassas, Va.) were treated with HDAC OSDNs as previously described.
(§5) For the apoptosis study, cells were analyzed using the Cell Death Detection ELISA ^PLUSkit (Roche Diagnostic GmBH, Mannheim, Germany) according to the manufacturer's directions. Typically, 10,000 cells were plated in 96-well tissue culture dishes for 2 hours before harvest and lysis. Each sample was analyzed in duplicate. ELISA reading was done using a MR700 plate reader (DYNEX Technology, Ashford, Middlesex, England) at 410 nm. The reference was set at 490 nm.

HMEC = experiment: Apoptosis, Cell Death Detection ELISA; type: cell-based, human; details: fold over non-specific background, TSA at 100 ng/ml
Method: as §4, §5

T24 = experiment: Apoptosis, Cell Death Detection ELISA; type: cell-based, human; details: fold over non-specific background, TSA at 100 ng/ml
Method: as §4, §5

cyclin B1 = experiment: Western blot of cyclin B1 in A549 cells; type: cell-based, human; details: 48 hours
Method: (§6) Human cancer A549 cells were treated with AS1, AS2 or MM oligo directed human HDAC1 for 48 hours. Total cell lysates were harvested and analyzed by Western blot using antibodies against human HDAC1, cyclin Bl, cyclin A and actin (all from Santa Cruz Biotechnology, Inc., Santa Cruz, Calif.).

cyclin A = experiment: Western blot of cyclin A in A549 cells; type: cell-based, human; details: 48 hours
Method: as §6

human HDAC-2 = experiment: Antisense ODN screen, HDAC-2 RNA, T24 cells; type: cell-based; details: 100 nM, 24 hours, Northern blot
Method: Twenty-four phosphorothioate ODNs containing sequences complementary to the 5′ or 3′ UTR of the human HDAC-2 gene (GenBank Accession No. U31814) were screened as above. […] HDAC-2 MM was created as a control; compared to the antisense oligo, it contains a 7-base mismatch.
as §1, §2

HDAC-2 protein = experiment: Western blot of HDAC isotype protein expression in A549 cells, HDAC-2; type: cell-based, human; details: 50 nM, 48 hours
Method: OSDN treatment conditions were as previously described.
Cells were lysed in buffer containing 1% Triton X-100, 0.5% sodium deoxycholate, 5 mM EDTA, 25 mM Tris-HC1, pH 7.5, plus protease inhibitors. Total protein was quantified by the protein assay reagent from Bio-Rad (Hercules, Calif.). 100 ug of total protein was analyzed by SDS-PAGE. Next, total protein was transferred onto a PVDF membrane and probed with various HDAC-specific primary antibodies. Rabbit anti-HDAC-1 (H-51), anti-HDAC-2 (H-54) antibodies (Santa Cruz Biotechnologies, Santa Cruz, Calif.) were used at 1:500 dilution. Rabbit anti-HDAC-3 antibody (Sigma, St. Louis, Mo.) was used at a dilution of 1:1000. Anti-HDAC-4 antibody was prepared as previously described (Wang, S. H. et al., (1999) Mol. Cell. Biol. 19:7816-27), and was used at a dilution of 1:1000. Anti-HDAC-6 antibody was raised by immunizing rabbits with a GST fusion protein containing a fragment of HDAC-6 protein (amino acid #990 to #1216, GenBank Accession No. AAD29048). Rabbit antiserum was tested and found only to react specifically to the human HDAC-6 isoform. HDAC-6 antiserum was used at 1:500 dilution in Western blots to detect HDAC-6 in total cell lysates. Horse Radish Peroxidase conjugated secondary antibody was used at a dilution of 1:5000 to detect primary antibody binding. […]

MDAmb231 [1] = experiment: Cell growth inhibition, trypan blue cell count; type: cell-based, human; details: MDAmb231 cancer cells, 50 nM, 72 hours
Method: as §4
(§7) Cells were harvested and cell numbers counted by trypan blue exclusion using a hemocytometer. Percentage of inhibition was calculated as (100—AS cell numbers/control cell numbers) %.

MDAmb231 [2] = experiment: Apoptosis, Cell Death Detection ELISA; type: cell-based, human; details: fold over non-specific background, TSA at 100 ng/ml
Method: as §4, §5

A549 cells = experiment: Growth in soft agar, colony count; type: cell-based, human; details: colonies counted after three weeks
Method: 1.3 g granulated agar (DIDFCO) was added to 100 ml deionized water and boiled in a microwave to sterilize. The boiled agar was held at 55 C until further use. Iscove's Modified Dulbecco×s Medium (GIBCO/BRL), 100× Penicillin-Streptomycin-Glutamine (GIBCO/BRL) and fetal bovine serum (medicorp) were pre-warmed at 37 C. To 50 ml sterile tubes was added 9 ml Isove's medium, 2 ml fetal bovine serum and 0.2 ml 100× Pen-Strep-Gln. Then 9 ml 55 C 1.3% agar was added to each tube. The tube contents were mixed immediately, avoiding air bubbles, and 2.5 ml of the mixture was poured into each sterile 6 cm petri dish to form a polymerized bottom layer. Dishes with polymerized bottom layers were then put in a CO2 incubator at 37 C until further use. In 50 ml sterile tubes were prewarmed at 37 C for each 4 cell lines/samples, 20 ml Iscove's medium, 0.4 ml 100× Pen-Strep-Gln and 8 ml fetal bovine serum. Cells were trypsinized and counted by trypan blue staining and 20,000 cells were aliquotted into a sterile 15 ml tube. To the tube was then added DMEM with low glucose (GIBCO/BRL)+10% fetal bovine serum+Pen-Strep-Gln to a final volume of 1 ml. To the prewarmed 37 C mix in the 50 ml tube was quickly added 8 ml 55 C 1.3% agar, which was then mixed well. […] Plates were wrapped up in foil paper and incubated in a CO2 incubator at 37° C. for three weeks, at which time colonies in agar are counted.

human cancer cells = experiment: Cell growth and apoptosis, summary for cancer cells; type: cell-based; details: summary of Table 3
Method: as §4, §5, §7

human HDAC-5 = experiment: Antisense ODN screen, HDAC-5 RNA, T24 cells; type: cell-based; details: 100 nM, 24 hours, Northern blot
Method: Thirteen phosphorothioate ODNs containing sequences complementary to the 5′ or 3′ untranslated regions of the human HDAC-5 gene (GenBank Accession No. AF039691) were screened as above.
as §1, §3

mammalian HDAC = details: Yoshida et al., J. Biol. Chem 265: 17174-17179 (1990); cited from earlier work
[3] = test system: murine erythroleukemia cells; details: Yoshida et al, Cancer Research 47: 3688-3691 (1987); cited from earlier work

5′-TACAGTCCATGCAACCTCCA-3′ [HDAC-4 AS2]
antisense activity to human HDAC-4 (human HDAC-4): antisense activity

5′-CTTCAGCCAGGATGCCCACA-3′ (sugars from the 5' end m4 d12 m4, all phosphorothioate, methylation of C and T or U not given here) [HDAC-7 AS]
antisense activity to human HDAC-7 (human HDAC-7): antisense activity

5′-GAAACGTGAGGGACTCAGCA-3′ (chemistry not given here) [HDAC-1 AS1]
antisense activity to human HDAC-1 (HDAC-1 RNA expression) (human HDAC-1): antisense activity
Apoptosis After 48 Hour Treatment (A549): + (“+”: 2-3X fold)
Apoptosis After 48 Hour Treatment (HMEC): − (“−”: <= 2x fold over non-specific background)
Apoptosis After 48 Hour Treatment (T24): − (“−”: <= 2x fold over non-specific background)
expression of cyclin B1 (cyclin B1): repress expression
expression of cyclin A (cyclin A): repress expression

5′-GGAAGCCAGAGCTGGAGAGG-3′ (chemistry not given here) [HDAC-1 AS2]
antisense activity to human HDAC-1 (HDAC-1 RNA expression) (human HDAC-1): antisense activity
expression of cyclin B1 (cyclin B1): repress expression
expression of cyclin A (cyclin A): repress expression

5′-GCTGAGCTGTTCTGATTTGG-3′ (chemistry not given here) [HDAC-2 AS]
antisense activity to human HDAC-2 (human HDAC-2): antisense activity
HDAC-2 protein expression (HDAC-2 protein): specifically inhibits
Growth Inhibition (AS vs. MM) (MDAmb231 [1]): − (“−”: no inhibition)
Apoptosis After 48 Hour Treatment (A549): − (“−”: <= 2x fold over non-specific background)
Apoptosis After 48 Hour Treatment (HMEC): − (“−”: <= 2x fold over non-specific background)
Apoptosis After 48 Hour Treatment (MDAmb231 [2]): − (“−”: <= 2x fold over non-specific background)
Apoptosis After 48 Hour Treatment (T24): − (“−”: <= 2x fold over non-specific background)
growth of A549 cells in soft agar (A549 cells): do not
cancer cell growth inhibition (human cancer cells): minimal effect

5′-CTTCGGTCTCACCTGCTTGG-3′ (sugars from the 5' end m4 d12 m4, all phosphorothioate, methylation of C and T or U not given here) [HDAC-5 AS]
antisense activity to human HDAC-5 (human HDAC-5): antisense activity

CC(/C=C/C(=O)NO)=C\[C@@H](C)C(=O)c1ccc(N(C)C)cc1 [TSA, (R)-Trichostatin A, reference compound]
Apoptosis After 48 Hour Treatment (A549): ++ (“++”: 3-5X fold)
Apoptosis After 48 Hour Treatment (HMEC): + (“+”: 2-3X fold)
Apoptosis After 48 Hour Treatment (MDAmb231 [2]): ++ (“++”: 3-5X fold)
Apoptosis After 48 Hour Treatment (T24): ++ (“++”: 3-5X fold)
inhibition of mammalian HDAC (mammalian HDAC): potent inhibitor
induction of differentiation in murine erythroleukemia cells [3]: potent inducer of differentiation
